We go through nine compounds from US20230416329A1, “A PEPTIDE WITH DISULFIDE BONDS AND INHIBITORY ACTIVITY AGAINST SERINE PROTEASES, DERIVED HYBRID PEPTIDES THEREOF, AND USES THEREOF” (INSTITUTE OF MATERIA MEDICA , CHINESE ACADEMY OF MEDICAL …, priority 2020, published 2023).

The experiment deals with T1, bovine trypsin (Bos taurus, UniProt P00760).
T1 sequence (P00760 24-246): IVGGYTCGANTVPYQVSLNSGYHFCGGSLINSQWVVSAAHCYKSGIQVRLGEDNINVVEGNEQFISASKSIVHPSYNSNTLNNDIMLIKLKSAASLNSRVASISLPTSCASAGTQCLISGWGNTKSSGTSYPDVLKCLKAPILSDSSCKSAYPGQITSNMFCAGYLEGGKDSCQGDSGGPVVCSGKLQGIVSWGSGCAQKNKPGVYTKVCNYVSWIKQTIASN
Put plainly: Trypsin inhibitory activity of peptides (BApNA hydrolysis, OD405; IC50, Ki, residual activity). The class given is biochemical. The note with it: for IC50: trypsin 50 nM, BApNA 1.22 mM, read-out: IC50. As to the method: The substrates N-succinyl-Ala-Ala-Pro-Phe-p-nitroaniline (AAPFpNA), Nα—Benzoyl-L-arginine-4-nitroaniline hydrochloride (BApNA) and N-succinyl-[…] (AAApNA) are used in competitive binding reaction to determine the inhibitory activities against α-chymotrypsin, bovine trypsin, and porcine pancreatic elastase, respectively. Experiments for α-chymotrypsin and bovine trypsin inhibition were measured in 20 mM CaCl2, 50 mM Tris-HCl buffer (pH 7.8), and that for porcine elastase inhibition was measured in 50 mM Tris-HCl buffer (pH 8.0). The concentration of the peptide was measured using optical density (OD) at 280 nm. The Michaelis constant (Km) of the enzyme hydrolysis substrate is calculated from the initial rate of substrate hydrolysis at 405 nm. The absorbance value of the substrate was measured at 405 nm after complete hydrolysis. All data were processed using nonlinear regression.
• (1) Added 200 μL of reaction buffer (20 mM CaCl2 and 50 mM Tris-HCl, pH 7.8) into the 96-well plate, and preheated at 37° C. for 15 min. Then added 5 μL of different concentrations of substrates (p-Nitroanilide, pNA, 0.5% in DMSO), and mixed by centrifugation at 500 rpm for 1 min. […] The experiment was performed in triplicate. The standard curve was obtained by plotting the OD405 nm value with pNA concentration. • (2) Added 190 μL of reaction buffer (20 mM CaCl2 and 50 mM Tris-HCl, pH 7.8) and 10 μL of 1 μM trypsin into the 96-well plate, and preheated at 37° C. for 15 min. Then added 5 μL of different concentrations of substrates (BApNA, 0.5% in DMSO) and mixed by centrifugation at 500 rpm for 1 min. […] The experiment was performed in triplicate. The corresponding curve was obtained by plotting the OD405 nm value with time. Divided the slope of the curve by the slope of the standard curve and the enzyme concentration to obtain the initial velocity V0 (mM/(min*mM protein). Plotted the initial velocity V0 with the concentration of substrate BApNA using Prism software, and the Michaelis constant Km value of trypsin hydrolyzing BApNA was obtained.
• (1) Added a total 190 μL of reaction buffer (20 mM CaCl2 and 50 mM Tris-HCl, pH 7.8) along with different concentrations of anti-trypsin peptides (BTs) into the pre-cooled 96-well plate, followed by preheating at 37° C., and spined down at 500 rpm for 5 min. Next added 10 μL of 1 μM trypsin, incubated at 37° C., and then spined down at 500 rpm for 10 min. Finally, added 5 μL of 50 mM BApNA, and mixed by centrifugation at 500 rpm for 1 min. The plate was incubated at 37° C. for 260 min, and the absorbance value at 405 nm was measured. The experiment was performed in triplicate. The blank control only contained the reaction buffer and the substrate as the minimum absorption value (Min OD405 nm). The negative control only contained the reaction buffer, the enzyme and the substrate as the maximum absorption value (Max OD405 nm). • (2) In the reaction system of 205 μL, the final concentrations of trypsin and BApNA were 50 nM and 1.22 mM, respectively. • (3) Data statistics
Residual activity of the enzyme (%)=(1−(Max OD405 nm−Sample OD405 nm)/(Max OD405 nm−Min OD405 nm))*100
Plotted the residual activity of the enzyme with […] to obtain the half inhibitory concentration (IC50) of BTs scaffold against trypsin. Then, substituted it into the formula Ki=IC50/(1+S/Km) (S, IC50 and Km were substrate concentration, half inhibitory concentration and Michaelis constant, respectively) to obtain the inhibition constant Ki of BTs scaffold against trypsin.

Where [1] appears, read: Ki=IC50/(1+S/Km), Km 0.33 mM, read-out: Ki.

Read-outs that look alike come from different tables or passages of the source. Bridge positions count the residues as written; N and C are the ends. Square brackets hold non-standard residues; d marks the D form. Peptide text beside a SMILES is read from it. Nle = CCCC[C@H](N)C(=O)O Where only a bound is given, the exact number is not on record here.

As for `CC[C@H](C)[C@@H]1NC(=O)[C@@H]2CCCN2C(=O)[C@@H]2CCCN2C(=O)[C@H]([C@@H](C)CC)NC(=O)[C@H](CO)NC(=O)[C@H](CCCCN)NC(=O)[C@H]([C@@H](C)O)NC(=O)[C@H](C)NC(=O)[C@H](CCCNC(=N)N)NC(=O)[C@@H]2CCCN2C(=O)[C@@H](N)CSSC[C@@H](C(=O)N[C@@H](Cc2ccccc2)C(=O)O)NC1=O` [BT66] (H-CPRATKSIPPICF-OH; disulfide 1-12; C-terminus assumed), the “inhibitory activity against trypsin (in words)” value (“inhibitory activity” below) is on record as “higher trypsin inhibitory activities” and the concentration for half-maximal inhibition (IC50) stood at 60 nM. Also, the Ki under setting [1] came out at 10 nM. The “inhibitory activity” value (listed as SEQ ID NO: 66) is reported as “excellent trypsin inhibitory activities”. Also, the Residual trypsin activity (peptide 0.000098 μM) stood at 107.0 ± 6.2%. For the same compound, the Residual trypsin activity (peptide 0.00098 μM) came out at 104.7 ± 2.1%. The Residual trypsin activity (peptide 0.0098 μM) is given as 106.2 ± 3.4%. Moreover, under “peptide 0.0488 μM”, the Residual trypsin activity was determined as 66.8 ± 8.2%. For the setting “peptide 0.0585 μM”, the Residual trypsin activity is reported as 55.7 ± 2.4%. Also, under “peptide 0.0780 μM”, the Residual trypsin activity is 13.9 ± 4.2%. In addition, the Residual trypsin activity (peptide 0.098 μM) was found to be 4.8 ± 0.7%. Besides, for the setting “peptide 0.98 μM”, the Residual trypsin activity is listed as 0.1 ± 0.0%. The Residual trypsin activity (peptide 9.76 μM) amounted to 0.1 ± 0.0%.
`CC[C@H](C)[C@@H]1NC(=O)[C@@H]2CCCN2C(=O)[C@@H]2CCCN2C(=O)[C@H]([C@@H](C)CC)NC(=O)[C@H](CO)NC(=O)[C@H](CCCNC(=N)N)NC(=O)[C@H]([C@@H](C)O)NC(=O)[C@H](C)NC(=O)[C@H](CCCNC(=N)N)NC(=O)CNC(=O)[C@@H](N)CSSC[C@@H](C(=O)N[C@@H](C)C(=O)O)NC1=O` [BT19] (H-CGRATRSIPPICA-OH; disulfide 1-12; N-terminus and C-terminus assumed): the “inhibitory activity” value was “significant impact on their anti-trypsisn activities”.
As for `CC[C@H](C)[C@@H]1NC(=O)[C@@H]2CCCN2C(=O)[C@@H]2CCCN2C(=O)[C@H]([C@@H](C)CC)NC(=O)[C@H](CO)NC(=O)[C@H](CCCCN)NC(=O)[C@H]([C@@H](C)O)NC(=O)[C@H](C)NC(=O)[C@H](CCCNC(=N)N)NC(=O)CNC(=O)[C@@H](N)CSSC[C@@H](C(=O)O)NC(=O)CNC(=O)[C@H](Cc2ccccc2)NC(=O)[C@H](C)NC1=O` [BT32] (H-CGRATKSIPPIAFGC-OH; disulfide 1-15; N-terminus and C-terminus assumed), the “inhibitory activity” value is “still maintained good inhibitory activity against trypsin”.
With `CC[C@H](C)[C@@H]1NC(=O)[C@H](CCCCN)NC(=O)[C@@H]2CCCN2C(=O)[C@@H](NC(=O)[C@H](CCCNC(=N)N)NC(=O)CN)CSSC[C@@H](C(=O)N[C@@H](Cc2ccccc2)C(=O)O)NC(=O)[C@H](CCCNC(=N)N)NC(=O)[C@H](CCC(N)=O)NC(=O)[C@H](CC(C)C)NC1=O` [BT43] (H-GRCPKILQRCF-OH; disulfide 3-10), the IC50 was > 50000 nM.
Same read-out and setting: the figure for `CC[C@H](C)[C@@H]1NC(=O)[C@@H]2CCCN2C(=O)[C@@H]2CCCN2C(=O)[C@H]([C@@H](C)CC)NC(=O)[C@H](CO)NC(=O)[C@H](CCCCN)NC(=O)[C@H]([C@@H](C)O)NC(=O)[C@H](C)NC(=O)[C@H](CCCNC(=N)N)NC(=O)CNC(=O)[C@@H](N)CSSC[C@@H](C(=O)O)NC(=O)[C@H](Cc2ccccc2)NC1=O` [BT30] (H-CGRATKSIPPIFC-OH; disulfide 1-13 (inferred); N-terminus and C-terminus assumed) is > 50000 nM.
Consider `CC[C@H](C)[C@@H]1NC(=O)[C@@H]2CCCN2C(=O)[C@@H]2CCCN2C(=O)[C@H]([C@@H](C)CC)NC(=O)[C@H](CO)NC(=O)[C@H](CCCCN)NC(=O)[C@H]([C@@H](C)O)NC(=O)[C@H](C)NC(=O)[C@H](CCCNC(=N)N)NC(=O)CNC(=O)[C@@H](N)CSSC[C@@H](C(=O)N[C@@H](Cc2ccccc2)C(=O)O)NC1=O` [BT9] (H-CGRATKSIPPICF-OH; disulfide 1-12; C-terminus assumed), for which the “inhibitory activity” value is “excellent trypsin inhibitory activities” and the IC50 was 70 nM. Besides, the Residual trypsin activity (peptide 0.00098 μM) was determined as 100.4 ± 0.6%. Moreover, for the setting “peptide 0.00488 μM”, the Residual trypsin activity was 99.0 ± 0.5%. Moreover, for the setting “peptide 0.0098 μM”, the Residual trypsin activity was determined as 94.3 ± 1.3%. Further, under “peptide 0.02439 μM”, the Residual trypsin activity amounted to 84.2 ± 1.9%. Further, the Residual trypsin activity (peptide 0.0488 μM) was determined as 68.1 ± 1.4%. For the same compound, the Residual trypsin activity (peptide 0.2439 μM) worked out at 0.3 ± 0.0%. Under “peptide 0.488 μM”, the Residual trypsin activity is −0.2 ± 0.1%. The Residual trypsin activity (peptide 0.98 μM) is on record as −0.4 ± 0.0%. Also, the Ki (read-out: inhibition constant (Ki) towards trypsin) was 10 nM.
`CC[C@H](C)[C@@H]1NC(=O)[C@@H]2CCCN2C(=O)[C@@H]2CCCN2C(=O)[C@H]([C@@H](C)CC)NC(=O)[C@H](CO)NC(=O)[C@H](CCCCN)NC(=O)[C@H]([C@@H](C)O)NC(=O)[C@H](C)NC(=O)[C@H](CCCNC(=N)N)NC(=O)[C@H](CCCNC(=N)N)NC(=O)[C@@H](N)CSSC[C@@H](C(=O)N[C@@H](Cc2ccccc2)C(=O)O)NC1=O` [BT76] (H-CRRATKSIPPICF-OH; disulfide 1-12; N-terminus and C-terminus assumed): the “inhibitory activity” value is recorded as “excellent trypsin inhibitory activities” and the IC50 worked out at 50 nM. The inhibition constant (Ki) under setting [1] turned out to be 10 nM.
As to `CCCC[C@@H]1NC(=O)[C@@H](N)CSSC[C@@H](C(=O)N[C@@H](Cc2ccccc2)C(=O)O)NC(=O)[C@H]([C@@H](C)CC)NC(=O)[C@@H]2CCCN2C(=O)[C@@H]2CCCN2C(=O)[C@H]([C@@H](C)CC)NC(=O)[C@H](CO)NC(=O)[C@H](CCCCN)NC(=O)[C@H]([C@@H](C)O)NC(=O)[C@H](C)NC(=O)[C@H](CCCNC(=N)N)NC1=O` [BT80] (H-C[Nle]RATKSIPPICF-OH; disulfide 1-12; N-terminus and C-terminus assumed), the inhibition constant (Ki) under setting [1] was determined as 20 nM.
As for `CC[C@H](C)[C@@H]1NC(=O)[C@@H]2CCCN2C(=O)[C@@H]2CCCN2C(=O)[C@H]([C@@H](C)CC)NC(=O)[C@H](CO)NC(=O)[C@H](CCCCN)NC(=O)[C@H]([C@@H](C)O)NC(=O)[C@H](C)NC(=O)[C@H](CCCNC(=N)N)NC(=O)CNC(=O)[C@@H](N)CSSC[C@@H](C(=O)O)NC(=O)[C@H](C)NC1=O` [BT13] (H-CGRATKSIPPIAC-OH; disulfide 1-13; N-terminus and C-terminus assumed), the “inhibitory activity” value was “still maintained good inhibitory activity against trypsin”.
